Patent publication US20030186869A1, “Polymer compositions comprising antifibrotic agents, and methods of treatment, pharmaceutical compositions, and methods of preparation therefor” (priority 1990, published 2003)
Where two headings read alike, the source gives them in different places.

Tests used:
RFL-6 cells = experiment: IC50 experiment, cytotoxicity / growth inhibition of RFL-6 rat fibroblast cells; format: cell-based; details: for factor by which cytotoxicity as PEG construct is reduced compared to the free amino acid: RFL-6 cells; for IC50: mean ± SD (n)
Protocol: In this test two different synthesis batches of cis-hydroxyproline (CHOP) linked to PEG were tested, along with free CHOP. […] The differences between the two batches of CHOP-PEG are not significant.

[1] = test system: rats exposed to hypoxia (10% O2); experiment: cHyp (free or in liposomes) in rats developing hypoxic pulmonary hypertension; format: in vivo, rat; details: for Hct / RVP / RV/(LV + S) / Protein: Hypoxia, day 3; for Protein: pulmonary artery
Text: Six week old male Sprague Dawley rats (Crl:CD[SD]BR) weighing 185-205 g and 8 week old female Swiss mice (Crl:CP-1[ICR]BR) weighing 30-32 g (Charles River Breading Laboratories, Wilmington, Mass.) were maintained in a holding area one week prior to study and were fed food and water ad libitum. Rats were randomly allocated to hypoxia or air groups; mice breathed air. Animals were kept in a 12-hour light-dark cycle.
Four rats were placed in a polycarbonate chamber measuring 51×41×22 cm, and humidified gas (10% O2, 90% N2 flowed into the chamber at a rate of 400 ml/min. Gas samples were analyzed electrometrically (model MB53-MK2, Radiometer, Copenhagen, Denmark); PO2 ranged from 74-80 mmHg and PCO2 from 3-5 mmHg. Air-breathing rats were kept in cages in the same room and were pair-fed to hypoxic animals by weighing the food consumed by hypoxic animals and feeding the same amount of food to air-breathing animals to ensure similar final body weights. The chambers were opened once daily for 10 min. to clean, weigh and feed the animals.
A catheter was placed in the right ventricle of anesthetized rats (50 mg/kg pentobarbital intraperitoneally), and mean right ventricular pressure was measured using a pressure transducer (model P23Db, Statham, Instruments, Oxnard, Calif.) and recorded (model SP-2006, Statham Instruments). Pressure was measured after the animal had breathed air for 20 min. to eliminate the tonic response to hypoxia. After sacrifice by abdominal aorta transection, hematocrit and ratio of ventricular weights were measured, and the position of the catheter was confirmed at autopsy.
Main pulmonary artery (9 mm in length) was excised and analyzed for total protein and hydroxyproline contents as previously described. Tissue was hydrolyzed in 6N HCl at 118° C. for 48 hrs., diluted 1:10 in water, and a 0.1 ml aliquot was assayed for total protein by the ninhydrin method using leucine as standard and for hydroxyproline by a calorimetric method. Results of triplicate measurements were expressed as content per vessel.
Cis-4-hydroxy-L-proline dissolved in saline (free cHyp) or saline alone were injected subcutaneously (0.5 ml) or intravenously. Intravenous injections were performed in anesthetized animals (25 mg/kg thiopental, intraperitoneally). In rats, liposomes containing cHyp or empty liposomes were injected intravenously (18 μmol phospholipid in […]) via the dorsal vein of the penis over 5 sec using a 30 gauge needle. In mice, liposomes (18 μmol phospholipid in 0.5 ml) were injected into the tail vein.
Four modes of delivery of cHyp were used in rats. Free cHyp (200 or 100 mg/kg) was injected subcutaneously twice daily during exposure to hypoxia. A single dose of free cHyp (200 mg/kg) was given intravenously prior to exposure to hypoxia. Single doses of cHyp entrapped in liposomes (200 or 100 mg/kg) were injected intravenously prior to exposure to hypoxia. Multiple doses of cHyp in liposomes (200 mg/kg) were injected intravenously prior to hypoxia and every 5 days during exposure to hypoxia. Single doses of cHyp entrapped in liposomes after reticuloendothelial blockage were produced by intravenous injection of a single dose of empty liposomes followed 30 minutes later by a single intravenous dose of cHyp entrapped in liposomes (100 or 50 mg/kg) prior to exposure to hypoxia. The purpose was to enhance the localization of liposomes containing cHyp to the lungs by prior treatment with empty liposomes as temporary reticuloendothelial blocking agents.
In each animal, we assessed the effect of injection of cHyp on five parameters of exposure to hypoxia: mean right ventricular pressure (RVP) measured after the animal had been removed from the hypoxic environment, ratio of ventricular weights (RV/[LV+S]), hematocrit, and the contents of hydroxyproline and protein in the pulmonary artery. For each experimental group, comparisons were made to a group exposed to hypoxia and injected with a control substance and to a group exposed to air. […]

air-breathing rats = experiment: cHyp in air-breathing rats, parameters of exposure to hypoxia; format: in vivo, rat; details: for Hct / RV/(LV + S) / RVP / Protein: Air, day 3; for Protein: pulmonary artery
Text: In each animal, we assessed the effect of injection of cHyp on five parameters of exposure to hypoxia: mean right ventricular pressure (RVP) measured after the animal had been removed from the hypoxic environment, ratio of ventricular weights (RV/[LV+S]), hematocrit, and the contents of hydroxyproline and protein in the pulmonary artery. For each experimental group, comparisons were made to a group exposed to hypoxia and injected with a control substance and to a group exposed to air. For free cHyp, the control substance was saline; for cHyp entrapped in liposomes, the control substance was empty liposomes. Groups were age-matched; the air group was weight-matched to the hypoxic group injected with the control substance. Average results of each parameter were compared.
The sixth protocol studied whether cHyp injected in air breathing rats affected any of the parameters of exposure to hypoxia. Air groups were given free cHyp 200 or 100 mg/kg subcutaneously twice daily for 3 days (Groups 13 and 14) and were compared to saline injected animals. A group was injected with 200 mg/kg of cHyp in liposomes every 5 days during a 21-day exposure to air (Group 15), and results were compared to a group injected with empty liposomes every 5 days during a 21-day exposure to air.

Smooth muscle cells = experiment: Smooth muscle cell proliferation, cells counted daily; format: cell-based; details: six day period, compared to free cHyp and tHyp
Text: As can be noted with respect to FIGS. 6-9, the antifibrotic agents can be conjugated with PEG or another polymer and used to reduce cellular proliferation in the presence of collagen metabolism. In FIG. 6, the effect of free cHyp, polymeric cHyp and free trans-hydroxyproline were compared over a six day period. Smooth muscle cells were allowed to proliferate in the presence of free cHyp, polymeric cHyp and trans-hydroxyproline. The polymeric cHyp was produced as described above and contained ester linkages. On each day, the cells were trypsinized and counted with a hemocytometer. […] This is further supported by the data illustrated in FIG. 9, generated with fibroblast cells. […] See, e.g., FIG. 7, which presents a comparison of activity between the ester linked polymer and the amide linked polymer in FIG. 8.

[2] = Hydrolytic stability of dual-labeled conjugate in pH buffers (GPC, scintillation counting); format: physicochemical; details: six day period
Protocol: Buffers at various pH levels were prepared according to the method described in Davies, The Analyst, 1959, 4:248-251, with final ionic strengths of approximately 0.15 mol./L. Incubation samples were prepared by dissolving the dual-labeled conjugate in the appropriate medium to obtain a 50 mg/mL concentration and immediately syringe filtering through 0.45 μm nylon filters. Aliquots (25-30 μL) at specified time points were removed for GPC analysis-fractionation. Release rates were determined by monitoring cleavage of the radiolabeled [^3H]-cHyp from the radiolabeled [^14C] polymeric backbone. Separation of the relatively high molecular weight backbone from the low molecular weight drug was readily achieved via gel permeation chromatography, which is a size separation technique, followed by scintillation counting of the collected fractions. This necessitated using radiolabeled-conjugate concentrations of 50 mg/mL, i.e., 1 mg of conjugate injected per run, resulting in appropriate molecular weight analysis and specific activity determinations for the collected fractions. […]
The polymeric conjugate consists of two distinctly different parts: (a) the polymeric backbone [poly(PEG-Lys)]; and (b) the pendent chain which consists of the drug molecule and its linking bond (cHyp). […] The hydrolytic stability of the polymeric conjugate was monitored over a six day period. The stability of the bonds present in the polymeric conjugate (ether, amide and urethane) was evaluated by incubation of the dual-labeled polymeric conjugate at the specified pH. Aliquot removal at specified time intervals, followed by GPC analysis with fractionation, permitted the quantitative monitoring of both carrier stability (molecular weight profile) and drug release (determination of [^3H]/[^14C] ratio by scintillation counting), as is shown in FIG. 12. In the pH range from 0 to 12, no change in either molecular weight, polydispersity or the [^3H] to [^14C] ratio could be detected throughout the test period.

[3] = Serum release study in fetal calf serum; format: in vitro ADME, bovine; details: six day incubation in FCS at 37° C.
Protocol: Buffers at various pH levels were prepared according to the method described in Davies, The Analyst, 1959, 4:248-251, with final ionic strengths of approximately 0.15 mol./L. Incubation samples were prepared by dissolving the dual-labeled conjugate in the appropriate medium to obtain a 50 mg/mL concentration and immediately syringe filtering through 0.45 μm nylon filters. Aliquots (25-30 μL) at specified time points were removed for GPC analysis-fractionation. Release rates were determined by monitoring cleavage of the radiolabeled [^3H]-cHyp from the radiolabeled [^14C] polymeric backbone. Separation of the relatively high molecular weight backbone from the low molecular weight drug was readily achieved via gel permeation chromatography, which is a size separation technique, followed by scintillation counting of the collected fractions. This necessitated using radiolabeled-conjugate concentrations of 50 mg/mL, i.e., 1 mg of conjugate injected per run, resulting in appropriate molecular weight analysis and specific activity determinations for the collected fractions. The serum release studies were conducted in 100% heat inactivated fetal calf serum (ΔFCS) at 37° C. at a concentration of 50 mg/mL of conjugate to ΔFCS, over a six day period.

[4] = Rattus norvegicus, RFL-6, free amino acid, read-out: IC50, Free AA
[5] = 100 mg/kg subcutaneously for 3 days

Molecule: O=C(O)C1C=CCN1 (racemic) [DHP, 3,4-dehydro-DL-proline]
- factor by which cytotoxicity as PEG construct is reduced compared to the free amino acid (RFL-6 cells): 8 ×
- IC50 (RFL-6 cells; [4]): 700 ± 300 µM

Molecule: NCCCC[C@H](N)C(=O)N1C[C@@H](O)C[C@H]1C(=O)O (relative stereo) [CHOP-Lys, L-lysine-cis-4-hydroxy-L-proline dipeptide]
- IC50 (RFL-6 cells; lysyl dipeptide, read-out: IC50, AA-Lys): 7000 µM

Molecule: O=C(O)[C@@H]1C[C@H](O)CN1 (stereo in doubt) [cHyp, cis-4-hydroxy-L-proline]
- hematocrit [1, 5]: partial decrease
- increased RVP, RV/(LV+S) or hydroxyproline or protein contents [1, 5]: did not prevent
- pulmonary hypertension ([1]; 200 mg/kg subcutaneously twice daily for 3 days): partially prevented
- Hct ([1]; 100 mg/kg sq bid × 3 days): 51 ± 1 %
- RVP ([1]; 100 mg/kg sq bid × 3 days): 14 ± 1 mmHg
- Hct ([1]; 200 mg/kg iv × 1 injection): 55 ± 1 %
- RV/(LV + S) ([1]; 200 mg/kg iv × 1 injection): 0.32 ± 0.01 %
- RVP ([1]; 200 mg/kg iv × 1 injection): 14 ± 1 mmHg
- Hct ([1]; 200 mg/kg sq bid × 3 days): 51 ± 1 %
- RV/(LV + S) ([1]; 200 mg/kg sq bid × 3 days): 0.25 ± 0.01 %
- RVP ([1]; 200 mg/kg sq bid × 3 days): 10 ± 1 mmHg
- minimal total dose required to prevent hypoxic pulmonary hypertension ([1]; at 5 days, subcutaneous (200 mg/kg twice daily)): 2000 mg/kg
- effect on any parameter ([1]; injected intravenously prior to hypoxic exposure): no effect
- Protein ([1]; 100 mg/kg sq bid × 3 days): 2.3 ± 0.3 mg/vessel
- Protein ([1]; 200 mg/kg iv × 1 injection): 2.3 ± 0.3 mg/vessel
- Protein ([1]; 200 mg/kg sq bid × 3 days): 1.4 ± 0.1 mg/vessel
- Hct (air-breathing rats; 100 mg/kg sq bid × 3 days): 47 ± 1%
- RV/(LV + S) (air-breathing rats; 100 mg/kg sq bid × 3 days): 0.25 ± 0.01%
- RVP (air-breathing rats; 100 mg/kg sq bid × 3 days): 9 ± 1 mmHg
- Hct (air-breathing rats; 200 mg/kg sq bid × 3 days): 46 ± 1%
- RV/(LV + S) (air-breathing rats; 200 mg/kg sq bid × 3 days): 0.24 ± 0.01%
- RVP (air-breathing rats; 200 mg/kg sq bid × 3 days): 9 ± 1 mmHg
- effect on any of the measured parameters (air-breathing rats; air, 200 mg/kg or 100 mg/kg twice daily subcutaneously for 3 days): no effect
- Protein (air-breathing rats; 100 mg/kg sq bid × 3 days): 1.2 ± 0.1 mg/vessel
- Protein (air-breathing rats; 200 mg/kg sq bid × 3 days): 1.2 ± 0.1 mg/vessel
- IC50 (RFL-6 cells; [4]): 8800 ± 5100 µM

Molecule: O=C(O)[C@@H]1CCN1 [ACA, (S)-(−)-2-azetidinecarboxylic acid]
- factor by which cytotoxicity as PEG construct is reduced compared to the free amino acid (RFL-6 cells): 4 ×
- IC50 (RFL-6 cells; [4]): 1700 ± 1800 µM

Molecule: O=C(O)[C@@H]1CSCN1 [THP, (R)-(−)-2-thiazolidine-4-carboxylic acid]
- factor by which cytotoxicity as PEG construct is reduced compared to the free amino acid (RFL-6 cells): 12 ×
- IC50 (RFL-6 cells; [4]): 700 ± 100 µM

Molecule: Poly(PEG-Lys-cis-Hyp) Copolymer [amide linked polymer]
- Cellular proliferation (Smooth muscle cells): further reduced

Molecule: Poly(PEG-Lys-cis-Hyp) Copolymer [polymeric cHyp]
- Cellular proliferation (Smooth muscle cells): significantly reduced

Molecule: poly(PEG-[^14C]Lys-[^3H]cHyp) [dual-labeled polymeric conjugate]
- change in [3H]/[14C] ratios (amide stability) ([2]; pH 14, 25° C.): relatively no change
- polymer backbone stability ([2]; pH 14, 25° C.): Massive backbone degradation
- change in molecular weight, polydispersity or [3H] to [14C] ratio ([2]; pH range from 0 to 12, 25° C.): no change
- cleavage of [3H]cHyp from the carrier [3]: did not occur to any appreciable extent
- polymer backbone stability [3]: completely maintained
